Consider three compounds from patent US8415501B2, “Methods and compositions for making and using polymorphs of cinacalcet” (Amgen, Inc., priority 2006, dated 2013).

Series [1] in a line: solid-form stability of cinacalcet HCl polymorphs. An excerpt:
The present invention describes an additional third form of the compound. […] The present invention is directed to a novel polymorph Form III.

Series [2] deals with patients with parathyroid carcinoma. Conditions: cited from earlier work.
For the next series, the target named is cytochrome P450 2D6 (Homo sapiens, UniProt P10635). The note with it: cited from earlier work.
cytochrome P450 2D6, sequence (P10635 whole entry): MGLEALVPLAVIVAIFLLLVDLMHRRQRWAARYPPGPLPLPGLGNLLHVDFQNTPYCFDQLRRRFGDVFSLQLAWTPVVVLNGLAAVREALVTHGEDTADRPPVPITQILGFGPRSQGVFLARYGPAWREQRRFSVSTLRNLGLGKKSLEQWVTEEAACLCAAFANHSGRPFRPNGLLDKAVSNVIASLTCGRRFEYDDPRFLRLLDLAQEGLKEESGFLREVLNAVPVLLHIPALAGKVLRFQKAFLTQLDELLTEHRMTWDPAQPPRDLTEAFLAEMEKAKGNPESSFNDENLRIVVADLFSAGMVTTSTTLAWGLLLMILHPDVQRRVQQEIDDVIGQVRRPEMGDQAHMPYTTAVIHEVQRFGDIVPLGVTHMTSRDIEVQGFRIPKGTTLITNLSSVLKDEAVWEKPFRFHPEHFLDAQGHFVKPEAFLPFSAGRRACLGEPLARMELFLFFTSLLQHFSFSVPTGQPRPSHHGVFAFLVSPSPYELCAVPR

Structures are written as SMILES.

With `C[C@@H](NCCCc1cccc(C(F)(F)F)c1)c1cccc2ccccc12.Cl` [Form III, N-[1-(R)-(−)-(1-naphthyl)ethyl]-3-[3-(trifluoromethyl)phenyl]-1-aminopropane hydrochloride], in series [1] (solvent systems and crystallization methods, XRPD analysis), the “thermodynamic stability of the crystalline form” value is on record as “metastable form”.

Turning to `C[C@@H](NCCCc1cccc(C(F)(F)F)c1)c1cccc2ccccc12.Cl` [Form II], in series [1] (room temperature), the “stability of the crystalline form” value is recorded as “unstable at room temperature”.

As for `C[C@@H](NCCCc1cccc(C(F)(F)F)c1)c1cccc2ccccc12.Cl` [Sensipar®, N-[1-(R)-(−)-(1-naphthyl)ethyl]-3-[3-(trifluoromethyl)phenyl]-1-aminopropane hydrochloride], in series [2], the “effect on calcium levels” value is listed as “reduce high levels of calcium”. Moreover, at cytochrome P450 2D6, the metabolizing enzyme entry is reported as “metabolized by cytochrome P450 2D6”.
